Measured values taken from PMC5766609 (Scientific Reports, 2018).
Residues, ends and D or L forms follow the SMILES beside them.

Assays:
[1] = molecular target: T1, human GLP-1 receptor (GLP1R) (Homo sapiens, UniProt P43220); experiment: cAMP assay on CHO-JumpIn cells stably transfected with human GLP-1 receptor (HitHunter cAMP); format: cell-based; conditions: Table 2, cAMP accumulation, buffer PBS, 0.1% BSA, 100 μM RO 20-1724, 20% serum, 1 hr at RT, value ± spread, read-out: EC50 GLP1R;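 also: peptides tested as 4-fold serial dilution series, cells exposed 1 hr at RT in the dark, cAMP quantified against a cAMP standard calibration curve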
T1 construct: expressed in transfected cells; host or cells: CHO-JumpIn cells, stably transfected
Protocol: (§1) Briefly, a 2 μM solution of peptide was prepared, and 4-fold serial dilutions were made. 150 nL of the above titration was then dispensed into an Optiplate384 using an Echo555. […] The HitHunter® cAMP Assay kit calibration curve was prepared following the manufacturer’s protocol (DiscoveRx-90-0075L). 30,000 cells/well were added to the peptides, spun briefly at 500 rpm for 15 s and incubated at RT in the dark for 1 hr. The assay was developed as per the manufacturer’s instructions. cAMP accumulation due to GLP1R agonism or GCGR agonism was measured using an EnVision platereader (PerkinElmer), and calibrated using the cAMP standard curve. Data were analyzed using Assay Data Analyzer (ADA).

[2] = molecular target: T2, human glucagon receptor (GCGR) (Homo sapiens, UniProt P47871); experiment: cAMP assay on CHO-JumpIn cells stably transfected with human glucagon receptor (HitHunter cAMP); format: cell-based; conditions: for EC50: Table 2, cAMP accumulation, CHO-JumpIn cells with human GCGR, buffer PBS, 0.1% BSA, 100 μM RO 20-1724, 20% serum, 1 hr at RT, value ± spread, read-out: EC50 GCGR;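 as to all read-outs here: peptides tested as 4-fold serial dilutions starting from a 2 µM solution, cells exposed 1 hr at RT in darkness, cAMP quantified against a cAMP standard curve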
T2 construct: expressed in transfected cells; host or cells: CHO-JumpIn cells, stably transfected
T2 sequence (P47871 26-477): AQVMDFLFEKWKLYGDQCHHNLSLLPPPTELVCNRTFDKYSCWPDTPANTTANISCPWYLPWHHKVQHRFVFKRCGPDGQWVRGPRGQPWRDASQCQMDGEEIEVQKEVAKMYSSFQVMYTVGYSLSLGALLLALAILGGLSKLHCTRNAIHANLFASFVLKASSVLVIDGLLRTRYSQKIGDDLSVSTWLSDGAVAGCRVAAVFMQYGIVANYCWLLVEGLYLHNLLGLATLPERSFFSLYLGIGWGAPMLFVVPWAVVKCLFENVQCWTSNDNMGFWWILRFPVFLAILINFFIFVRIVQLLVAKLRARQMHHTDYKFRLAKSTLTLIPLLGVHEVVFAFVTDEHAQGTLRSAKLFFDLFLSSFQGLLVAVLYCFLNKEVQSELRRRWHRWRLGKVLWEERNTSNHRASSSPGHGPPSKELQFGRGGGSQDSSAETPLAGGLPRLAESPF
Protocol: as §1

T1 sequence (P43220 24-463): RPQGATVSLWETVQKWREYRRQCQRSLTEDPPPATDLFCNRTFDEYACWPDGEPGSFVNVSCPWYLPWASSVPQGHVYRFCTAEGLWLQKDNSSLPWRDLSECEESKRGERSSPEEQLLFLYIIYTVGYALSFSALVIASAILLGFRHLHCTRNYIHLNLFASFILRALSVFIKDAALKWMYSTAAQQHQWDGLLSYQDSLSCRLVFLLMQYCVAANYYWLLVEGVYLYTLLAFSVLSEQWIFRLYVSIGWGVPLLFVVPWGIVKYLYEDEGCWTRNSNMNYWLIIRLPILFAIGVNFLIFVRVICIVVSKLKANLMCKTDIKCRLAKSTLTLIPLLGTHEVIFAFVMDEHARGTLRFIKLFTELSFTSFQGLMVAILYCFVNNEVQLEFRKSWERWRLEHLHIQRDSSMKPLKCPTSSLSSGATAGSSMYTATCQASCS

Compound	EC50 [1]	EC50 [2]	activation of the receptors (in words) ([2]; both receptors (GCGR and GLP1R) not activated)
CC(C)C[C@H](NC(=O)[C@H](Cc1ccc(O)cc1)NC(=O)[C@H](CCCCN)NC(=O)[C@H](CO)NC(=O)[C@H](Cc1ccc(O)cc1)NC(=O)[C@H](CC(=O)O)NC(=O)[C@H](CO)NC(=O)[C@@H](NC(=O)[C@H](Cc1ccccc1)NC(=O)[C@@H](NC(=O)CNC(=O)[C@H](CCC(N)=O)NC(=O)[C@H](CO)NC(=O)[C@@H](N)Cc1c[nH]cn1)[C@@H](C)O)[C@@H](C)O)C(=O)N[C@@H](CC(=O)O)C(=O)N[C@@H](CO)C(=O)N[C@@H](CCCCN)C(=O)N[C@@H](CCCNC(=N)N)C(=O)N[C@@H](C)C(=O)N[C@@H](Cc1c[nH]cn1)C(=O)N[C@@H](CC(=O)O)C(=O)N[C@@H](Cc1ccccc1)C(=O)N[C@H](C(=O)N[C@@H](CCC(N)=O)C(=O)N[C@@H](Cc1c[nH]c2ccccc12)C(=O)N[C@@H](CC(C)C)C(=O)N[C@@H](CC(C)C)C(=O)N[C@@H](CC(N)=O)C(=O)N[C@H](C(N)=O)[C@@H](C)O)C(C)C [Peptide 24] (H-HSQGTFTSDYSKYLDSKRAHDFVQWLLNT-NH2)	0.018 ± 0.001 nM	0.026 ± 0.001 nM	
CSCC[C@H](NC(=O)[C@H](CO)NC(=O)[C@@H](NC(=O)[C@H](CCSC)NC(=O)[C@@H](NC(=O)[C@H](Cc1ccccc1)NC(=O)[C@H](CC(=O)O)NC(=O)[C@H](CCC(N)=O)NC(=O)[C@H](C)NC(=O)[C@H](CCCNC(=N)N)NC(=O)[C@H](CCCNC(=N)N)NC(=O)[C@H](CO)NC(=O)[C@H](CC(=O)O)NC(=O)[C@H](CC(C)C)NC(=O)[C@H](Cc1ccc(O)cc1)NC(=O)[C@H](CCCCN)NC(=O)[C@H](CO)NC(=O)[C@H](Cc1ccc(O)cc1)NC(=O)[C@H](CC(=O)O)NC(=O)[C@H](CO)NC(=O)[C@@H](NC(=O)[C@H](Cc1ccccc1)NC(=O)[C@@H](NC(=O)CNC(=O)[C@H](CCC(N)=O)NC(=O)[C@H](CO)NC(=O)[C@@H](N)Cc1c[nH]cn1)[C@@H](C)O)[C@@H](C)O)C(C)C)[C@@H](C)O)C(=O)N[C@@H](CC(N)=O)C(=O)N[C@H](C(N)=O)[C@@H](C)O [Peptide 26]	8.96 ± 1.84 nM	> 200 nM	
CSCC[C@H](NC(=O)[C@H](CC(C)C)NC(=O)[C@H](Cc1c[nH]c2ccccc12)NC(=O)[C@H](CCC(N)=O)NC(=O)[C@@H](NC(=O)[C@H](Cc1ccccc1)NC(=O)[C@H](CC(=O)O)NC(=O)[C@H](CCC(N)=O)NC(=O)[C@H](C)NC(=O)[C@H](CCCNC(=N)N)NC(=O)[C@H](CCCNC(=N)N)NC(=O)[C@H](CO)NC(=O)[C@H](CC(=O)O)NC(=O)[C@H](CC(C)C)NC(=O)[C@H](Cc1ccc(O)cc1)NC(=O)[C@H](CCCCN)NC(=O)[C@H](CO)NC(=O)[C@H](Cc1ccc(O)cc1)NC(=O)[C@H](CC(=O)O)NC(=O)[C@H](CO)NC(=O)[C@@H](NC(=O)[C@H](Cc1ccccc1)NC(=O)[C@@H](NC(=O)CNC(=O)[C@H](Cc1c[nH]cn1)NC(=O)[C@H](CO)NC(=O)[C@@H](N)Cc1c[nH]cn1)[C@@H](C)O)[C@@H](C)O)C(C)C)C(=O)N[C@H](C(=O)N[C@H](C(N)=O)[C@@H](C)O)[C@@H](C)O [Peptide 29]	0.08 ± 0.006 nM	0.032 ± 0.003 nM	
CSCC[C@H](NC(=O)[C@H](CC(=O)O)NC(=O)[C@H](CC(C)C)NC(=O)[C@H](Cc1ccc(O)cc1)NC(=O)[C@H](CCCCN)NC(=O)[C@H](CO)NC(=O)[C@H](Cc1ccc(O)cc1)NC(=O)[C@H](CC(=O)O)NC(=O)[C@H](CO)NC(=O)[C@@H](NC(=O)[C@H](Cc1ccccc1)NC(=O)[C@@H](NC(=O)CNC(=O)[C@H](CCC(N)=O)NC(=O)[C@H](CO)NC(=O)[C@@H](N)Cc1c[nH]cn1)[C@@H](C)O)[C@@H](C)O)C(=O)N[C@@H](CCC(N)=O)C(=O)N[C@@H](CCCNC(=N)N)C(=O)N[C@@H](C)C(=O)N[C@@H](Cc1c[nH]cn1)C(=O)N[C@@H](CC(=O)O)C(=O)N[C@@H](Cc1ccccc1)C(=O)N[C@H](C(=O)N[C@@H](CCC(N)=O)C(=O)N[C@@H](Cc1c[nH]c2ccccc12)C(=O)N[C@@H](CC(C)C)C(=O)N[C@@H](CCSC)C(=O)N[C@@H](CC(N)=O)C(=O)N[C@H](C(N)=O)[C@@H](C)O)C(C)C [Peptide 32]	0.022 ± 0.001 nM	0.014 ± 0.001 nM	

The remaining lines, values ahead:

EC50 [1]	EC50 [2]	activation of the receptors (in words) ([2]; both receptors (GCGR and GLP1R) not activated)	Compound
> 20 nM	> 20 nM	did not activate	CC[C@H](C)[C@H](NC(=O)[C@H](Cc1c[nH]c2ccccc12)NC(=O)[C@H](Cc1ccccc1)NC(=O)[C@H](CC(=O)O)NC(=O)[C@H](CCC(N)=O)NC(=O)[C@H](C)NC(=O)[C@H](CCCNC(=N)N)NC(=O)[C@H](CCCNC(=N)N)NC(=O)[C@H](CO)NC(=O)[C@H](CC(=O)O)NC(=O)[C@H](CC(C)C)NC(=O)[C@H](Cc1ccc(O)cc1)NC(=O)[C@H](CCCCN)NC(=O)[C@H](CO)NC(=O)[C@H](Cc1ccc(O)cc1)NC(=O)[C@H](CC(=O)O)NC(=O)[C@H](CO)NC(=O)[C@@H](NC(=O)[C@H](Cc1ccccc1)NC(=O)[C@@H](NC(=O)CNC(=O)[C@H](CCC(N)=O)NC(=O)[C@H](CO)NC(=O)[C@@H](N)Cc1c[nH]cn1)[C@@H](C)O)[C@@H](C)O)C(=O)N[C@@H](CC(=O)O)C(=O)N[C@@H](CC(C)C)C(=O)N[C@@H](CCSC)C(=O)N[C@@H](CC(N)=O)C(=O)N[C@H](C(N)=O)[C@@H](C)O [Peptide 25]
0.007 ± 0.001 nM	0.016 ± 0.001 nM		CC[C@H](C)[C@H](NC(=O)[C@H](CC(C)C)NC(=O)[C@H](Cc1c[nH]c2ccccc12)NC(=O)[C@H](CC(=O)O)NC(=O)[C@@H](NC(=O)[C@H](Cc1ccccc1)NC(=O)[C@H](CC(=O)O)NC(=O)[C@H](CCC(N)=O)NC(=O)[C@H](C)NC(=O)[C@H](CCCNC(=N)N)NC(=O)[C@H](CCCNC(=N)N)NC(=O)[C@H](CO)NC(=O)[C@H](CC(=O)O)NC(=O)[C@H](CC(C)C)NC(=O)[C@H](Cc1ccc(O)cc1)NC(=O)[C@H](CCCCN)NC(=O)[C@H](CO)NC(=O)[C@H](Cc1ccc(O)cc1)NC(=O)[C@H](CC(=O)O)NC(=O)[C@H](CO)NC(=O)[C@@H](NC(=O)[C@H](Cc1ccccc1)NC(=O)[C@@H](NC(=O)CNC(=O)[C@H](CCC(N)=O)NC(=O)[C@H](CO)NC(=O)[C@@H](N)Cc1c[nH]cn1)[C@@H](C)O)[C@@H](C)O)C(C)C)C(=O)N[C@@H](CC(N)=O)C(=O)N[C@@H](CO)C(N)=O [Peptide 28]
> 200 nM	0.026 ± 0.004 nM		CC[C@H](C)[C@H](NC(=O)CNC(=O)[C@H](CCC(N)=O)NC(=O)[C@H](CO)NC(=O)[C@@H](N)Cc1c[nH]cn1)C(=O)N[C@@H](Cc1ccccc1)C(=O)N[C@@H](Cc1ccccc1)C(=O)N[C@@H](CO)C(=O)N[C@@H](CC(=O)O)C(=O)N[C@@H](Cc1ccc(O)cc1)C(=O)N[C@@H](CO)C(=O)N[C@@H](CCCCN)C(=O)N[C@@H](Cc1ccc(O)cc1)C(=O)N[C@@H](CC(C)C)C(=O)N[C@@H](CC(=O)O)C(=O)N[C@@H](CO)C(=O)N[C@@H](CCCNC(=N)N)C(=O)N[C@@H](CCCNC(=N)N)C(=O)N[C@@H](C)C(=O)N[C@@H](CCC(N)=O)C(=O)N[C@@H](CC(=O)O)C(=O)N[C@@H](Cc1ccccc1)C(=O)N[C@H](C(=O)N[C@@H](CCC(N)=O)C(=O)N[C@@H](Cc1c[nH]c2ccccc12)C(=O)N[C@@H](CC(C)C)C(=O)N[C@@H](CCSC)C(=O)N[C@@H](CC(N)=O)C(=O)N[C@H](C(N)=O)[C@@H](C)O)C(C)C [Peptide 30] (H-HSQGIFFSDYSKYLDSRRAQDFVQWLMNT-NH2)
